We go through 10 compounds from ChEMBL document CHEMBL3137667, “[Drug-induced liver injury; fourteenth updated edition of the bibliographic database of liver injuries and related drugs]” (Gastroenterol Clin Biol, 2004).

The conditions of series [1]: human, serum, 4383 h.
For series [2] the following is noted: human, serum.
The conditions of series [3]: human.
For series [4] the following is noted: human. This is another data set of the same source.
The conditions of series [5]: human. This is another data set of the same source.
Series [6] can be described thus: Times to onset, minimal and maximal, observed in the indexed observations. [column 'DELAI' in source]. The conditions noted are these: human.
The conditions of series [7]: human. This is another data set of the same source.
The conditions of series [8]: human. This is another data set of the same source.
Series [9] can be described thus: Highest frequency of acute liver toxicity observed during clinical trials, expressed as a percentage. [column '% AIGUE' in source]. Particulars: human.
The conditions of series [10]: human. This is another data set of the same source.
Series [11] in a line: Comments (NB not yet translated). [column 'COMMENTAIRES' in source]. The conditions noted are these: human.
For series [12] the following is noted: human. This is another data set of the same source.
The conditions of series [13]: human, serum. The source holds these as a separate data set.
For series [14] the following is noted: human. The source holds these as a separate data set.
The conditions of series [15]: human. The source holds these as a separate data set.
Series [16] can be described thus: Highest frequency of moderate liver toxicity observed during clinical trials, expressed as a percentage. [column '% BIOL' in source]. Particulars: human.
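Wherever Hepatotoxicity (association with vascular disease) is given: count of indexed literature references reporting vascular liver injury in humans, e.g. peliosis hepatitis, hepatic veno-occlusive disease or Budd-Chiari syndrome.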
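Wherever Hepatotoxicity (benign tumour) is given: value is a count of indexed literature references citing a benign tumour confirmed by histopathology.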
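Wherever Hepatotoxicity (choleostasis) is given: human cholestatic liver injury, shown by histopathology or by peak ALT or AST elevation over alkaline phosphatase ratio below 2, value counts indexed literature reports.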
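Wherever Hepatotoxicity (chronic liver disease) is given: chronic liver injury confirmed by histopathology or persistently raised serum aminotransferase activity beyond 6 months, value given as the count of indexed literature references.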
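Wherever Hepatotoxicity (cirrhosis) is given: value is a count of indexed literature references reporting cirrhosis confirmed by histopathology.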
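Wherever Hepatotoxicity (cytolytic) is given: human cytolytic liver injury, shown by histopathology or by a ratio above 5 of peak ALT or AST elevation to alkaline phosphatase elevation, value counts indexed references.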
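Wherever Hepatotoxicity (granulomatous hepatitis) is given: value is a count of indexed literature references reporting granulomatous liver disease confirmed by histopathology.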
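Wherever Hepatotoxicity (malignant tumour) is given: malignant tumour confirmed by histopathology, value gives the count of indexed literature references reporting it.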
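Wherever Hepatotoxicity (severe hepatitis) is given: human clinical data: severe hepatitis, meaning potentially life-threatening liver failure or clinically observed cases, the value counts how many indexed literature references report it.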
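Wherever Hepatotoxicity (steatosis) is given: steatosis confirmed by histopathology, value is the count of indexed references.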

As for `CC(CN(C)C)CN1c2ccccc2Sc2ccc(C#N)cc21` (stereo not given) [CYAMEMAZINE], the “Hepatotoxicity (chronic liver disease)” value in series [1] turned out to be 0. Further, the “Hepatotoxicity (acute)” value in series [2] was determined as 4; in [9], 0%. The “Hepatotoxicity (choleostasis)” value in [3] was found to be 3. For the same compound, in [4], the “Hepatotoxicity (malignant tumour)” value was determined as 0. The “Hepatotoxicity (steatosis)” value in series [5] is 0. Also, in series [6], the “Hepatotoxicity (time to onset)” value was determined as 2 days - 7 weeks. Besides, the “Hepatotoxicity (cytolytic)” value in series [7] amounted to 1. For the same compound, the “Hepatotoxicity (cirrhosis)” value in series [8] was 0. The “Hepatotoxicity (association with vascular disease)” value in series [10] stood at 0. Also, the “Hepatotoxicity (comment)” value in [11] is given as “CHOLANGITE #CIRROSE_BILIAIRE RC/DESIPRAMINE/TRIMIPRAMINE”. Besides, in [12], the “Hepatotoxicity (granulomatous hepatitis)” value is 1. The “Hepatotoxicity (moderate)” value in [13] was determined as 0; in series [16], 0%. In [14], the “Hepatotoxicity (benign tumour)” value is reported as 0. In addition, the “Hepatotoxicity (severe hepatitis)” value in [15] was determined as 1.

Take `C[C@@H]1C[C@H]2[C@@H]3CCC4=CC(=O)C=C[C@]4(C)[C@@]3(F)[C@@H](O)C[C@]2(C)[C@@]1(O)C(=O)CO` [DEXAMETHASONE]: in series [1], the “Hepatotoxicity (chronic liver disease)” value was determined as 0. The “Hepatotoxicity (acute)” value is on record as 0 in [2] and 0% in series [9]. Besides, the “Hepatotoxicity (choleostasis)” value in series [3] was found to be 0. Further, the “Hepatotoxicity (malignant tumour)” value in series [4] came out at 0. Also, in series [5], the “Hepatotoxicity (steatosis)” value was 0. Moreover, in series [6], the “Hepatotoxicity (time to onset)” value is on record as 8 days - 18 days. In addition, the “Hepatotoxicity (cytolytic)” value in [7] was 0. Also, in series [8], the “Hepatotoxicity (cirrhosis)” value amounted to 0. In addition, the “Hepatotoxicity (association with vascular disease)” value in [10] is recorded as 0. Further, the “Hepatotoxicity (comment)” value in [11] was “HEPATOMEGALIE”. Also, in series [12], the “Hepatotoxicity (granulomatous hepatitis)” value was found to be 0. Besides, the “Hepatotoxicity (moderate)” value in series [13] is 2; in series [16], 24%. The “Hepatotoxicity (benign tumour)” value in series [14] is on record as 0. In addition, the “Hepatotoxicity (severe hepatitis)” value in series [15] amounted to 0.

Turning to `CC/C(=C(/CC)c1ccc(OP(=O)(O)O)cc1)c1ccc(OP(=O)(O)O)cc1` [DIETHYLSTILBESTROL DIPHOSPHATE], in series [1], the “Hepatotoxicity (chronic liver disease)” value amounted to 1. Further, the “Hepatotoxicity (acute)” value in series [2] worked out at 0; in [9], 0%. In addition, in [3], the “Hepatotoxicity (choleostasis)” value is on record as 0. The “Hepatotoxicity (malignant tumour)” value in series [4] was determined as 0. Also, the “Hepatotoxicity (steatosis)” value in [5] stood at 1. In addition, the “Hepatotoxicity (time to onset)” value in series [6] was determined as 3 months - 9 years. Further, the “Hepatotoxicity (cytolytic)” value in series [7] amounted to 0. In [8], the “Hepatotoxicity (cirrhosis)” value was 1. Moreover, the “Hepatotoxicity (association with vascular disease)” value in series [10] was found to be 0. The “Hepatotoxicity (comment)” value in series [11] is “NASH”. In addition, the “Hepatotoxicity (granulomatous hepatitis)” value in series [12] is 0. Besides, the results for the “Hepatotoxicity (moderate)” value in series [13] and in series [16] were 1 and 6.3%, respectively. For the same compound, the “Hepatotoxicity (benign tumour)” value in [14] is given as 0. For the same compound, the “Hepatotoxicity (severe hepatitis)” value in series [15] came to 0.

For the compound `CC/C(=C(/CC)c1ccc(O)cc1)c1ccc(O)cc1` [DIETHYLSTILBESTROL], the “Hepatotoxicity (chronic liver disease)” value in series [1] is reported as 0. Further, the entries for the “Hepatotoxicity (acute)” value in series [2] and in series [9] were 5 and 0%, respectively. In addition, the “Hepatotoxicity (choleostasis)” value in [3] worked out at 4. Besides, in [4], the “Hepatotoxicity (malignant tumour)” value is reported as 6. Also, the “Hepatotoxicity (steatosis)” value in series [5] is 0. In addition, the “Hepatotoxicity (time to onset)” value in [6] stood at 4 days - 15 years. Besides, in series [7], the “Hepatotoxicity (cytolytic)” value is 0. For the same compound, the “Hepatotoxicity (cirrhosis)” value in [8] was 0. Besides, the “Hepatotoxicity (association with vascular disease)” value in [10] was 1. For the same compound, the “Hepatotoxicity (comment)” value in series [11] is “ANGIOSARCOME RC/TAMOXIFENE”. The “Hepatotoxicity (granulomatous hepatitis)” value in series [12] (Liver) is 0. Further, the “Hepatotoxicity (moderate)” value in [13] amounted to 3; in series [16] it was 19%. The “Hepatotoxicity (benign tumour)” value in series [14] was 0. For the same compound, the “Hepatotoxicity (severe hepatitis)” value in [15] is 1.

Turning to `CN(C)CC/C=C1\c2ccccc2CSc2ccccc21` [DOTHIEPIN], in [1], the “Hepatotoxicity (chronic liver disease)” value was found to be 0. Moreover, the “Hepatotoxicity (acute)” value in series [2] was 3; in [9] it was 0%. The “Hepatotoxicity (choleostasis)” value in series [3] is 2. Also, in [4], the “Hepatotoxicity (malignant tumour)” value stood at 0. For the same compound, the “Hepatotoxicity (steatosis)” value in [5] was found to be 1. Also, in [6], the “Hepatotoxicity (time to onset)” value is 40 days - 69 days. Besides, in series [7], the “Hepatotoxicity (cytolytic)” value is 2. In series [8], the “Hepatotoxicity (cirrhosis)” value came to 0. For the same compound, the “Hepatotoxicity (association with vascular disease)” value in [10] is 0. Moreover, the “Hepatotoxicity (comment)” value in series [11] is reported as “RC/PAROXETINE”. Further, the “Hepatotoxicity (granulomatous hepatitis)” value in series [12] is on record as 0. Moreover, the “Hepatotoxicity (moderate)” value in series [13] is 1; in series [16], 4.5%. For the same compound, in series [14], the “Hepatotoxicity (benign tumour)” value is 0. Also, the “Hepatotoxicity (severe hepatitis)” value in [15] was 0.

Regarding `C[C@]12CC[C@@H]3c4ccc(OS(=O)(=O)O)cc4CC[C@H]3[C@@H]1CCC2=O` [ESTRONE SULFURIC ACID], the “Hepatotoxicity (chronic liver disease)” value in series [1] worked out at 0. For the same compound, the “Hepatotoxicity (acute)” value is 1 in series [2] and 0% in series [9]. In addition, in series [3], the “Hepatotoxicity (choleostasis)” value is reported as 1. Also, in [4], the “Hepatotoxicity (malignant tumour)” value is on record as 0. The “Hepatotoxicity (steatosis)” value in [5] worked out at 0. The “Hepatotoxicity (time to onset)” value in [6] is 3 months - 1 year. The “Hepatotoxicity (cytolytic)” value in series [7] came out at 0. In addition, the “Hepatotoxicity (cirrhosis)” value in [8] turned out to be 0. For the same compound, the “Hepatotoxicity (association with vascular disease)” value in series [10] was found to be 0. For the same compound, the “Hepatotoxicity (comment)” value in series [11] is reported as “HNF”. The “Hepatotoxicity (granulomatous hepatitis)” value in series [12] is 0. The results for the “Hepatotoxicity (moderate)” value in series [13] and in series [16] were 5 and 22.9%, respectively. Also, the “Hepatotoxicity (benign tumour)” value in series [14] came to 1. Moreover, in [15], the “Hepatotoxicity (severe hepatitis)” value was 0.

Consider `CCc1cccc2c3c([nH]c12)C(CC)(CC(=O)O)OCC3` (stereo not given) [ETODOLAC], for which, in series [1], the “Hepatotoxicity (chronic liver disease)” value worked out at 0. Moreover, the “Hepatotoxicity (acute)” value in series [2] was 3; in series [9], 0%. Also, the “Hepatotoxicity (choleostasis)” value in series [3] amounted to 2. In series [4], the “Hepatotoxicity (malignant tumour)” value is on record as 0. For the same compound, the “Hepatotoxicity (steatosis)” value in [5] worked out at 1. Moreover, the “Hepatotoxicity (time to onset)” value in [6] was 4 days - 16 weeks. The “Hepatotoxicity (cytolytic)” value in [7] came out at 2. The “Hepatotoxicity (cirrhosis)” value in series [8] came to 0. Besides, the “Hepatotoxicity (association with vascular disease)” value in [10] came out at 0. The “Hepatotoxicity (comment)” value in series [11] is given as “AC_ANTI-N/-ML”. The “Hepatotoxicity (granulomatous hepatitis)” value in series [12] is 0. Also, the results for the “Hepatotoxicity (moderate)” value in series [13] and in [16] were 4 and 4%, respectively. The “Hepatotoxicity (benign tumour)” value in series [14] was 0. In addition, in series [15], the “Hepatotoxicity (severe hepatitis)” value is 1.

On to `CC(=O)OCC(CCn1cnc2cnc(N)nc21)COC(C)=O` [FAMCICLOVIR], for which the “Hepatotoxicity (chronic liver disease)” value in series [1] came out at 0. In addition, the “Hepatotoxicity (acute)” value in series [2] is recorded as 1; in series [9] it was 0%. Further, the “Hepatotoxicity (choleostasis)” value in [3] is listed as 0. Also, the “Hepatotoxicity (malignant tumour)” value in series [4] is given as 0. In addition, in series [5], the “Hepatotoxicity (steatosis)” value amounted to 0. For the same compound, the “Hepatotoxicity (time to onset)” value in series [6] is 12 weeks. Also, the “Hepatotoxicity (cytolytic)” value in [7] was 0. Further, the “Hepatotoxicity (cirrhosis)” value in series [8] was determined as 0. Also, in [10], the “Hepatotoxicity (association with vascular disease)” value turned out to be 0. Also, the “Hepatotoxicity (comment)” value in series [11] is “REACTIVATION_HVB”. In addition, the “Hepatotoxicity (granulomatous hepatitis)” value in series [12] is reported as 0. Also, the figures for the “Hepatotoxicity (moderate)” value in series [13] and in [16] were 0 and 0%, respectively. Also, the “Hepatotoxicity (benign tumour)” value in [14] turned out to be 0. Also, the “Hepatotoxicity (severe hepatitis)” value in series [15] is 1.

In the case of `CC(C(=O)O)c1cccc(Oc2ccccc2)c1` (stereo not given) [FENOPROFEN], in series [1], the “Hepatotoxicity (chronic liver disease)” value was found to be 0. Further, the results for the “Hepatotoxicity (acute)” value in series [2] and in series [9] were 3 and 0%, respectively. The “Hepatotoxicity (choleostasis)” value in [3] is given as 1. For the same compound, in [4], the “Hepatotoxicity (malignant tumour)” value is reported as 0. In series [5], the “Hepatotoxicity (steatosis)” value is recorded as 0. Moreover, the “Hepatotoxicity (time to onset)” value in [6] turned out to be 1 week - 7 weeks. Moreover, the “Hepatotoxicity (cytolytic)” value in [7] was 2. In series [8], the “Hepatotoxicity (cirrhosis)” value is on record as 0. The “Hepatotoxicity (association with vascular disease)” value in series [10] worked out at 0. Besides, the “Hepatotoxicity (comment)” value in [11] was “RC/NAPROXENE”. For the same compound, the “Hepatotoxicity (granulomatous hepatitis)” value in series [12] turned out to be 0. Moreover, the “Hepatotoxicity (moderate)” value in series [13] came out at 1; in series [16], 7%. Moreover, in series [14], the “Hepatotoxicity (benign tumour)” value was determined as 0. Also, the “Hepatotoxicity (severe hepatitis)” value in series [15] is 0.

Regarding `Nc1nc(F)nc2c1ncn2[C@@H]1O[C@H](CO)[C@@H](O)[C@@H]1O` [FLUDARABINE], the “Hepatotoxicity (chronic liver disease)” value in series [1] came out at 0. Further, the figures for the “Hepatotoxicity (acute)” value in series [2] and in series [9] were 2 and 0%, respectively. Besides, the “Hepatotoxicity (choleostasis)” value in series [3] came to 0. Further, the “Hepatotoxicity (malignant tumour)” value in [4] was found to be 0. Further, the “Hepatotoxicity (steatosis)” value in [5] worked out at 0. The “Hepatotoxicity (time to onset)” value in series [6] is reported as 8 months. The “Hepatotoxicity (cytolytic)” value in [7] was found to be 1. Besides, the “Hepatotoxicity (cirrhosis)” value in series [8] amounted to 0. In addition, in [10], the “Hepatotoxicity (association with vascular disease)” value was 0. Also, the “Hepatotoxicity (comment)” value in [11] was “REACTIVATION_HVB”. The “Hepatotoxicity (granulomatous hepatitis)” value in [12] amounted to 0. In addition, the results for the “Hepatotoxicity (moderate)” value in series [13] and in [16] were 5 and 42.9%, respectively. Besides, the “Hepatotoxicity (benign tumour)” value in series [14] came to 0. In addition, the “Hepatotoxicity (severe hepatitis)” value in series [15] was 1.
